In patent publication US8715754B2, “Chromobacterium bioactive compositions and metabolites” (Marrone Bio Innovations, Inc., priority 2010, dated 2014):

Columns and labels:
[1] = test system: Cabbage Looper (Trichoplusia ni); test: whole plant or invertebrate; assay type: in vivo
Procedure: Toxicity of the compound of interest in fraction 1 (F1) was confirmed in an in vitro assay using 1st instar cabbage looper larvae as a test object.
Two hundred microliters of commercial cabbage looper diet was distributed in each well of a 96-well microplate. After the diet had solidified, 100 uL of solution containing 50 uL of extract (corresponding to four individual peaks found in fraction 1; H1-H4), 350 uL EtOH and 600 uL sterile DI water was pipetted in each well, after which the plate was dried using a hand-held fan. The amount of extract in each well was 10 micrograms. Each treatment was replicated eight times, and a mixture of pure ethanol and water was used as a negative control.
One test insect (1st instar larvae of cabbage looper) was placed in each well, and the plate was covered with an adhesive seal. The seal was punctured for aeration, and the sealed plate was incubated at 26° C. for four days.
The 96-well plate assay system described in the previous example was used to determine the concentration of pure violacein needed to kill 50% of the 1st instar cabbage looper larvae. Based on the data, violacein is a potent insecticide with an estimated LC50 value of 7*10^−6 micrograms per well for cabbage looper larvae in an in vitro diet-overlay assay.

[2] = test system: Cabbage looper (Trichoplusia ni) or Beet armyworm (Spodoptera exigua); test: Screening of fractions and pure compounds in feeding assay; assay type: in vivo; details: HPLC-purified compounds
Procedure: The culture broth derived from the 10-L fermentation C. substugae in L-broth is extracted with Amberlite XAD-7 resin (Asolkar et al., 2006) by shaking the cell suspension with resin at 225 rpm for two hours at room temperature. The resin and cell mass are collected by filtration through cheesecloth and washed with DI water to remove salts. The resin, cell mass, and cheesecloth are then soaked for 2 h in acetone/methanol (50/50) after which the acetone/methanol is filtered and dried under vacuum using rotary evaporator to give the crude extract. The crude extract is then fractionated by using Sephadex LH 20 size exclusion chromatography (CH2Cl2/CH3OH; 50/50) to give 7 fractions (FIG. 1). These fractions are then concentrated to dryness using rotary evaporator and the resulting dry residues are screened for biological activity using a feeding assay with Cabbage looper (Trichoplusia ni) or Beet armyworm (Spodoptera exigua). The active fractions are then subjected to reversed phase HPLC (Spectra System P4000 (Thermo Scientific) to give pure compounds, which are then screened in above mentioned bioassays to locate/identify the active compounds. To confirm the identity of the compound, additional spectroscopic data such as LC/MS and NMR is recorded.

[3] = test system: Cabbage Loopers, Trichoplusia ni; test: Synergy test on treated artificial diet, cabbage loopers; assay type: in vivo
Procedure: (§1) Synergy tests were performed by treating artificial diet in 96-well plates and feeding treated diet to neonate larvae. 100 μL of treatment were pipetted into multiple wells of each plate. […] The diet was fan-dried to remove excess moisture. Neonate Beet Armyworm, Spodoptera exigua, or Cabbage Loopers, Trichoplusia ni, were transferred into each well of the multi-well plate. Infested plates were covered with adhesive plate sealer and a single small hole was poked into the sealer over each well to allow for aeration. Plates were stored in an incubator at 26° C., 16 h light/8 h dark cycle for […]. On the third and fourth day after infesting, mortality was scored.
(§2) The determination of a synergistic, antagonistic, or additive interaction was determined using the methods from (Colby 1967). Due to variation in bioassays, it was determined that ratios between 0 and 0.9 would be considered antagonistic, 0.9-1.1 ratios would be additive, and ratios above 1.1 would be considered synergistic relationships.
(§3) MBI-203 synergy with insecticides against Cabbage Loopers was tested. Chlorantranilipole (marketed as Coragen®, Dupont), Bacillus thuringiensis var. kurstaki (Dipel®, Valent Biosciences), Spinosad (marketed as Entrust®, Dow Agro Sciences), Spirotetramet (marketed as Movento®, Bayer Crop Science) and Pyrethrum/pyrethrins (marketed as Pyganic®, Arbico Organics) were tested with MBI-203. As noted above, except where indicated, LC50 concentrations of MBI-203 and insecticides were used.

[4] = test system: Beet Armyworm, Spodoptera exigua; test: Synergy test on treated artificial diet, beet armyworm; assay type: in vivo
Procedure: as §1, §2
as §3, with “Beet Army Worm (BAW)” for “Cabbage Loopers”, “used. […] Pyrethrum combinations with MBI-203 were antagonistic.” for “used.”

[5] = test system: root knot nematode Meloidogyne sp.; test: Mini drench test, root galling of cucumber (Zeck's gall index); assay type: in vivo, Meloidogyne incognita; details: 20 ppm
Procedure: MBI-203 was tested for its intrinsic activity against the root knot nematode Meloidogyne sp. in two mini drench tests.
Specifically MBI-203 was tested in a greenhouse assay conducted in 45 ml pots. Cucumber seeds cv. Toshka were sown directly into pots filled with a sandy loam soil. Ten days later pots were each treated with 5 ml of a suspension. Hereafter, pots were inoculated with 3000 eggs of M. incognita. Four replicates were prepared for each treatment and rate. The trial was harvested fourteen days after trial application and inoculation. Root galling was assessed according to Zeck's gall index (Zeck, 1971). Specific conditions are set forth below in Table 3.

[6] = Trichoplusia ni, 96 h, read-out: % mortality Day 4

O=C1NC(c2c[nH]c3ccc(O)cc23)=C/C1=C1\C(=O)Nc2ccccc21 (single isomer, unassigned) [Violacein, violacein]
mortality at 1e-06 µg/disc [1, 6]: 14.2%
mortality at 1e-05 µg/disc [1, 6]: 71.4%
mortality at 0.0001 µg/disc [1, 6]: 100%
mortality at 0.001 µg/disc [1, 6]: 100%
mortality at 0.01 µg/disc [1, 6]: 100%
mortality at 0.1 µg/disc [1, 6]: 100%
mortality at 1 µg/disc [1, 6]: 100%
mortality at 10 µg/disc [1, 6]: 100%
estimated LC50 ([1]; in vivo): 7*10^−6 micrograms per well
activity in feeding bioassay (active compound) [2]: active

CNC(=O)c1cc(Cl)cc(C)c1NC(=O)c1cc(Br)nn1-c1ncccc1Cl [Chlorantranilipole]
Product alone Kill % ([3]; LC50 concentration): 3%
Product alone Kill % ([4]; LC50 concentration): 9.1%

CCOP(=O)(SC(C)CC)N1CCSC1=O (stereo not shown) [Fosthiazate]
control ([5]; Mini drench test no. 1): 100%
control ([5]; Mini drench test no. 2): 100%

CCOC(=O)OC1=C(c2cc(C)ccc2C)C(=O)N[C@]12CC[C@@H](OC)CC2 [Spirotetramet]
Product alone Kill % ([3]; LC50 concentration): 23.8%
Product alone Kill % ([3]; Spirotetramet 0.5X LC50): 41.5%
Product alone Kill % ([4]; Spirotetramet 0.53X LC50): 42.9%
Product alone Kill % ([4]; Spirotetramet 1.4X LC50): 77.5%

O=C1NC(c2c[nH]c3ccccc23)=C/C1=C1\C(=O)Nc2ccccc21 [deoxyviolacein (3), deoxyviolacein]
activity in feeding bioassay (active compound) [2]: active

Spinosad
Product alone Kill % ([3]; LC50 concentration): 54.3%
Product alone Kill % ([4]; LC50 concentration): 68.7%

chromamide A
activity in feeding bioassay (active compound) [2]: active
